The source of these data is US9902728B2, “Pyrrolo and pyrazolopyrimidines as ubiquitin-specific protease 7 inhibitors” (Forma Therapeutics, Inc., priority 2014, dated 2018).

For one experiment, the target named is T1, USP7 (Homo sapiens, UniProt Q93009).
T1 construct: USP7, construct USP7 (208-1102) 6*His, Viva Biotech; 6xHis (C); purchased Viva Biotech
T1 sequence (Q93009 208-1102): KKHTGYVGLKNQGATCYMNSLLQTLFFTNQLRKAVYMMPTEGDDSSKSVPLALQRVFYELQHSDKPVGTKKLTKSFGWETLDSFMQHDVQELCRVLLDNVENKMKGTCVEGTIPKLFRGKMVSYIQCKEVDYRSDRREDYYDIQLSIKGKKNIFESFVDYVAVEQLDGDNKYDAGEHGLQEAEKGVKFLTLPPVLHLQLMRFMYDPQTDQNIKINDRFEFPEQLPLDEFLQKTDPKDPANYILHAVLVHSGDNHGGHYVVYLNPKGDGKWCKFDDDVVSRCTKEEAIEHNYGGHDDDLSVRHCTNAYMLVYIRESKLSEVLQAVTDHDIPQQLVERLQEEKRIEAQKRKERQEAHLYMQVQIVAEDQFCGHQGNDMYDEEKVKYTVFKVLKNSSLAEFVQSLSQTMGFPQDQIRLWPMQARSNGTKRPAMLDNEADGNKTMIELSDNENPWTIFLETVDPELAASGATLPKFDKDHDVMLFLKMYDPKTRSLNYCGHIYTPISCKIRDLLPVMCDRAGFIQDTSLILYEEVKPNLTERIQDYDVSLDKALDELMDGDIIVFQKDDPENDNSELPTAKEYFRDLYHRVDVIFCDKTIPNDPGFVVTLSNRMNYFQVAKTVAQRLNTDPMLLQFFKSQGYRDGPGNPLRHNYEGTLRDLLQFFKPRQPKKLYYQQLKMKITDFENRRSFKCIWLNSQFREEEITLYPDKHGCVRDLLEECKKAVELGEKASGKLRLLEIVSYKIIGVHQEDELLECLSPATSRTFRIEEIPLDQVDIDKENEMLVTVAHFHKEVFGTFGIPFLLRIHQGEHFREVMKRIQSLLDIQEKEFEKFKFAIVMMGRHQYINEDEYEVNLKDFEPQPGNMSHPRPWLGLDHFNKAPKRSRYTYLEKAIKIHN
As to the kind of experiment: USP7 Assay A (Ubitquin-Rhodamine 110 Assay). It counts as biochemical. The conditions noted are these: USP7 activity in USP7 assay A and B (table does not say which assay per compound); read-out: USP7_IC50. The gist of the method: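 Enzyme and compound sat together for 30 min before Ub-Rh110 was added, in buffer of 20 mM Tris-HCl (pH 8.0), 1 mM GSH, 0.03% BGG and 0.01% Triton X-100.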
For the compound `O=C(c1ccc(F)cc1)N1CCC(O)(Cn2cnc3c(cnn3-c3ccc(N4CCN5CCCC[C@@H]5C4)cc3)c2=O)CC1` [Compound I-484, (R)-5-((1-(4-fluorobenzoyl)-4-hydroxypiperidin-4-yl)methyl)-1-(4-(octahydro-2H-pyrido[1,2-a]pyrazin-2-yl)phenyl)-1,5-dihydro-4H-pyrazolo[3,4-d]pyrimidin-4-one], the IC50 is under 200 nM.

As for `O=C(OCCCN1CCCC1)N1CCC(O)(Cn2cnc3c(cnn3-c3ccc(F)cc3)c2=O)CC1` [Compound I-486, 3-(Pyrrolidin-1-yl)propyl 4-((1-(4-fluorophenyl)-4-oxo-1,4-dihydro-5H-pyrazolo[3,4-d]pyrimidin-5-yl)methyl)-4-hydroxypiperidine-1-carboxylate], the IC50 lay within 1000 to 10000 nM.

The experiment is the same for the next values; noted with them: USP7 assay A and B (table does not say which assay per compound); read-out: USP7_IC50.
Turning to `O=C(C1CC1)N1CCC(O)(Cn2cnc3c(cnn3-c3cccc(-c4cccc5[nH]ccc45)c3)c2=O)CC1` [Compound I-406], the IC50 is 1000 to 10000 nM.

On to `O=C(NCCO)c1cccc(-c2cccc(-n3ncc4c(=O)n(CC5(O)CCN(C(=O)C6CC6)CC5)cnc43)c2)c1` [Compound I-409], for which the IC50 was 1000 to 10000 nM.

Take `CCN(Cc1ccc(-n2ncc3c(=O)n(CC4(O)CCN(C(=O)C5CC5)CC4)cnc32)cc1)C1CCCCC1` [Compound I-416]: the IC50 fell in the range of 1000 to 10000 nM.

Take `O=C(c1ccc(N2CCOCC2)nc1)N1CCC(O)(Cn2cnc3c(cnn3-c3ccc(F)cc3)c2=O)CC1` [Compound I-419]: the IC50 lay within 1000 to 10000 nM.

On to `O=C(c1ccc(C(F)(F)F)nc1)N1CCC(O)(Cn2cnc3c(cnn3-c3ccc(F)cc3)c2=O)CC1` [Compound I-422], for which the IC50 was over 10000 nM.

Turning to `O=C(N1CCC(O)(Cn2cnc3c(cnn3-c3ccc(F)cc3)c2=O)CC1)C12CC(C(F)(F)F)(C1)C2` [Compound I-423], the IC50 lay within 1000 to 10000 nM.

With `CNC(=O)N1CCC(O)(Cn2cnc3c(cnn3-c3ccc(-c4ccccc4)cc3)c2=O)CC1` [Compound I-425], the IC50 was 1000 to 10000 nM.

Consider `O=C(C1CC1)N1CCC(O)(Cn2cnc3c(cnn3-c3ccc(CN4CCCCC4)cc3)c2=O)CC1` [Compound I-431], for which the IC50 is 1000 to 10000 nM.

`COCCN(C)Cc1ccc(-n2ncc3c(=O)n(CC4(O)CCN(C(=O)C5CC5)CC4)cnc32)cc1` [Compound I-434]: the IC50 fell in the range of 1000 to 10000 nM.

For the compound `O=C(C1CC1)N1CCC(O)(Cn2cnc3c(cnn3-c3ccc(CN4CCc5ccccc5C4)cc3)c2=O)CC1` [Compound I-437], the IC50 is 1000 to 10000 nM.

As for `CCc1ccc(CN(C)Cc2ccc(-n3ncc4c(=O)n(CC5(O)CCN(C(=O)C6CC6)CC5)cnc43)cc2)cn1` [Compound I-440], the IC50 lay in the range of 1000 to 10000 nM.

`O=C(C1CC1)N1CCC(O)(Cn2cnc3c(cnn3-c3ccc(CN4CCC5(CCOCC5)C4)cc3)c2=O)CC1` [Compound I-443]: the IC50 fell in the range of 1000 to 10000 nM.

Turning to `N#CC1CCN(Cc2cccc(-n3ncc4c(=O)n(CC5(O)CCN(C(=O)C6CC6)CC5)cnc43)c2)CC1` [Compound I-446], the IC50 lay within 1000 to 10000 nM.

As for `COCCN(C)Cc1cccc(-n2ncc3c(=O)n(CC4(O)CCN(C(=O)C5CC5)CC4)cnc32)c1` [Compound I-449], the IC50 is 1000 to 10000 nM.

As to `CC(C)CN(C)Cc1cccc(-n2ncc3c(=O)n(CC4(O)CCN(C(=O)C5CC5)CC4)cnc32)c1` [Compound I-452], the IC50 was in the range of 1000 to 10000 nM.

In the case of `CC1(C(=O)N2CCC(O)(Cn3cnc4c(cnn4-c4ccc(F)cc4)c3=O)CC2)CCC1` [Compound I-464], the IC50 was in the range of 200 to 1000 nM.

On to `O=C(c1ccc(C2(O)CC2)cc1)N1CCC(O)(Cn2cnc3c(cnn3-c3ccccc3)c2=O)CC1` [Compound I-467], for which the IC50 was in the range of 1000 to 10000 nM.

With `O=C(c1ccccc1)N1CC[C@](O)(Cn2cnc3c(cnn3-c3ccccc3)c2=O)[C@H](F)C1` [Compound I-469], the IC50 was in the range of 1000 to 10000 nM.

For `CN(C)C(=O)N1CCC(O)(Cn2cnc3c(cnn3-c3ccc(F)c(-c4ccc(F)cc4)c3)c2=O)CC1` [Compound I-475], the IC50 lay in the range of 1000 to 10000 nM.

For `CC1(C)CC(NC(=O)N2CCC(O)(Cn3cnc4c(cnn4-c4ccc(F)cc4)c3=O)CC2)C1` [Compound I-482], the IC50 was over 10000 nM.
